The text below walks through data of US6831086B1, “Process for the inactivation of viruses with the aid of acridine derivatives” (ZLB Behring GmbH, priority 1994, dated 2004).

Experiment [1] concerns Haemate ® Factor VIII. Nature of the experiment: Clotting activity of Haemate after virus inactivation. To be noted: for Activity (clotting activity): Haemate ® Factor VIII, 3 hours 37° C. It is filed as biochemical.
Experiment [2] relates to IBRV. Nature of the experiment: Inactivation of IBRV, infectiousness titration. The format is cell-based, Infectious bovine rhinotracheitis virus. To be noted: for Titer reduction / Treatment titer: 45° C.
The test system of experiment [3] is PI3 virus. The experiment can be described thus: Inactivation of PI3 virus, infectiousness titration. To be noted: 37° C.; for Virus inactivation: EME medium. It is filed as cell-based, Bovine parainfluenza 3 virus.
Experiment [4] deals with BPV. The experiment can be described thus: Inactivation of BPV, infectiousness titration. It is filed as cell-based, Bovine parvovirus. To be noted: for Virus inactivation: BPV, 45° C.
Experiment [5] relates to PPV. The experiment can be described thus: Inactivation of PPV, infectiousness titration. It is filed as cell-based, Porcine parvovirus.
Experiment [6] has as its target Beriplex ® Factor II (Homo sapiens, UniProt P00734). The experiment can be described thus: Clotting activity of Beriplex after virus inactivation. The format is biochemical. To be noted: 3 hours 37° C.
Experiment [7] has as its system envelope-containing and nonenveloped virus species. It is filed as cell-based.
The test system of experiment [8] is BVDV. The experiment can be described thus: Inactivation of BVDV, infectiousness titration. It is filed as cell-based, Bovine viral diarrhoea virus. To be noted: Venimmun + BVDV; Acriflavine 0.001 mg/ml; 37° C.; 3 h.
Experiment [9] deals with CPV. Nature of the experiment: Inactivation of CPV in protein solutions, infectiousness titration. To be noted: Acriflavine 0.001 mg/ml. The format is cell-based, Canine parvovirus.
[10] abbreviates: Beriplex + PPV, BACI 0.001 mg/ml, 30° C., 0 h.
Setting [11] is: Beriplex + PPV, BACI 0.001 mg/ml, 30° C., 1 h.
The mark [12] stands for this setting: Beriplex + PPV, BACI 0.001 mg/ml, 30° C., 2 h.
Where [13] appears, read: Beriplex + PPV, BACI 0.001 mg/ml, 30° C., 3 h.
The mark [14] stands for this setting: Beriplex + PPV, BACI 0.01 mg/ml, 37° C., 0 h.
The mark [15] stands for this setting: Beriplex + PPV, BACI 0.01 mg/ml, 37° C., 1 h.
Setting [16] is: Beriplex + PPV, BACI 0.01 mg/ml, 37° C., 2 h.
The mark [17] stands for this setting: Beriplex + PPV, BACI 0.01 mg/ml, 37° C., 3 h.
Setting [18] is: Beriplex + PPV, Acriflavine 0.001 mg/ml, 30° C., 0 h.
Where [19] appears, read: Beriplex + PPV, Acriflavine 0.001 mg/ml, 30° C., 1 h.
[20] abbreviates: Beriplex + PPV, Acriflavine 0.001 mg/ml, 30° C., 2 h.
The mark [21] stands for this setting: Beriplex + PPV, Acriflavine 0.001 mg/ml, 30° C., 3 h.
[22] abbreviates: Beriplex + PPV, Acriflavine 0.001 mg/ml, 37° C., 3 h.
Setting [23] is: Haemate + PPV, Acriflavine 0.001 mg/ml, 37° C., 3 h.

For the compound “Haemate®: Concentrate from clotting factor VIII and Von-Willebrand factor, pasteurized (Behringwerke AG)”, the “Activity decrease of clotting preparation after acridines/benzalkonium chloride inactivation, in words” value in [1] (Table 7) is recorded as “tolerable”.
In the case of `CCOc1ccc2nc3cc(N)ccc3c(N)c2c1` [Ethacridine lactate], the Titer reduction was 0 log10/ml in experiment [2] (0 h), 3.7 log10/ml in experiment [2] (1 h) and “≧2.8 log10/ml” in experiment [2] (2 h). Also, the results for the Treatment titer in experiment [2] (0 h), in experiment [2] (1 h) and in experiment [2] (2 h) were 6.5 log10/ml, 2.0 log10/ml and “≦1.5 log10/ml”, respectively.
As to Benzalkonium chloride [BACI], the Virus inactivation entry is “≧5.9 log10/ml” in experiment [3] (BACI 0.005 mg/ml, 0-0.03 h); 0.5 log10/ml in [3] (BACI 0.0125 mg/ml, 0-0.03 h); 1.3 log10/ml in experiment [3] (BACI 0.0125 mg/ml, 1 h); 1.4 log10/ml in experiment [3] (BACI 0.025 mg/ml, 0-0.03 h); “≧5.3 log10/ml” in experiment [3] (BACI 0.025 mg/ml, 1 h); “≧5.3 log10/ml” in [3] (BACI 0.05 mg/ml, 1 h). Also, the Virus inactivation result in experiment [3] (BACI 0.1 mg/ml, 0-0.03 h) is recorded as “≧5.9 log10/ml”; in experiment [3] (BACI 0.1 mg/ml, 1 h), “≧5.3 log10/ml”; in experiment [4] (BACI 0.01 mg/ml, 1 hour) it was 0 log10/ml; in [4] (BACI 0.01 mg/ml, 2 hours), 0 log10/ml; in [4] (BACI 0.05 mg/ml, 1 hour), 0 log10/ml; in experiment [4] (BACI 0.05 mg/ml, 2 hours), 0 log10/ml. Moreover, the “Inactivation of PI3 virus, in words” value in [3] (high doses of BACI (0.1 mg/ml, 0.05 mg/ml), time needed to mix, sample and titrate) is “infectious virus was no longer detectable”. The “Inactivation of BPV, in words” value in experiment [4] (test conditions of Table 2, 45° C., 1 or 2 hours) is listed as “not inactivated”. The Titer reduction in [5] (setting [10]), in [5] (setting [11]), in experiment [5] (setting [12]), in experiment [5] (setting [13]), in [5] (setting [14]) and in [5] (setting [15]) was 0 log10/ml in each case. Also, the Titer reduction is listed as 0 log10/ml in [5] (setting [16]) and 0.2 log10/ml in experiment [5] (setting [17]). The Treatment titer in experiment [5] (setting [10]) was 4.8 log10/ml; in [5] (setting [11]) it was 4.8 log10/ml; in experiment [5] (setting [12]), 4.8 log10/ml; in experiment [5] (setting [13]) it was 4.6 log10/ml; in [5] (setting [14]) it was 4.8 log10/ml; in experiment [5] (setting [15]), 4.6 log10/ml. In addition, the Treatment titer in [5] (setting [16]) and in experiment [5] (setting [17]) was 4.6 log10/ml throughout. The “Activity (clotting activity)” value is 20.7 IU/ml in experiment [1] (BACI 0.02 mg/ml) and 61.3 IU/ml in experiment [6] (BACI 0.02 mg/ml). For the same compound, the “Virus species inactivated, in words” value in experiment [7] is given as “only envelope-containing viruses can be, inactivated”.
For “3,6-diamino-10-methylacridinium, chloride and 3,6-acridineidiamine [Acriflavine]”, the Titer reduction in experiment [5] (setting [18]) was 0 log10/ml; in experiment [5] (setting [19]), 1.0 log10/ml; in experiment [5] (setting [20]), 1.7 log10/ml; in experiment [5] (setting [21]), “≧3.3 log10/ml”; in experiment [5] (setting [22]), “≧3.3 log10/ml”; in experiment [5] (setting [23]), “≧3.8 log10/ml”. For the same compound, the Titer reduction entry is reported as “≧6.0 log10/ml” in experiment [8]; 3.5 log10/ml in [9] (FCS + CPV, 37° C., 3 h); 0 log10/ml in [9] (FCS + CPV, 45° C., 0 h); 2.0 log10/ml in experiment [9] (FCS + CPV, 45° C., 1 h); 3.3 log10/ml in experiment [9] (FCS + CPV, 45° C., 2 h); 4.2 log10/ml in experiment [9] (FCS + CPV, 45° C., 3 h). For the same compound, the Titer reduction in experiment [9] (Venimmun + CPV, 37° C., 3 h) worked out at 3.0 log10/ml. Further, the Treatment titer in experiment [5] (setting [18]) was 4.8 log10/ml; in [5] (setting [19]), 3.6 log10/ml; in [5] (setting [20]), 2.9 log10/ml; in experiment [5] (setting [21]), “≦1.5 log10/ml”; in [5] (setting [22]), “≦1.5 log10/ml”; in [5] (setting [23]), “≦1.5 log10/ml”. In addition, the Treatment titer in experiment [8] was determined as 0 log10/ml; in experiment [9] (FCS + CPV, 37° C., 3 h), 3.4 log10/ml; in experiment [9] (FCS + CPV, 45° C., 0 h) it was 6.8 log10/ml; in experiment [9] (FCS + CPV, 45° C., 1 h) it was 4.8 log10/ml; in experiment [9] (FCS + CPV, 45° C., 2 h), 3.5 log10/ml; in [9] (FCS + CPV, 45° C., 3 h) it was 2.8 log10/ml. Moreover, in experiment [9] (Venimmun + CPV, 37° C., 3 h), the Treatment titer worked out at 3.9 log10/ml. The Virus inactivation in experiment [2] (37° C., 2 hours) was determined as 3.3 log10/ml. The “Activity (clotting activity)” value in experiment [1] (A 0.001 mg/ml) was 16.8 IU/ml; in experiment [1] (A 0.002 mg/ml), 18.9 IU/ml; in experiment [6] (A 0.001 mg/ml), 50.0 IU/ml; in [6] (A 0.002 mg/ml), 48.8 IU/ml.
